Assay results from US6254882A, “Methods and compositions for treating pulmonary disorders using optically pure (S)--salmeterol” (Sepracor Inc., priority 1997, dated 2001).

Columns and labels:
[1] = tested on: isolated guinea pig tracheal strips; assay: Relaxation of histamine-contracted isolated guinea pig tracheal strips; design: species or system guinea pig (male Hartley); details: for EC50: Cavia porcellus, % of maximum relaxation by 1 mM papaverine, tested up to 1000 nM, r(log-lin) = 0.9453-0.9968, (S)-salmeterol extrapolated from three data points, read-out: EC50 Tracheal Relaxation, determined by linear regression of percent maximum response
[2] = tested on: isolated guinea pig right atria; assay: Chronotropic effect on isolated guinea pig right atria (atrial rate); design: species or system guinea pig (male Hartley); details: for EC50: Cavia porcellus, % of rate produced by 1 μM forskolin, tested up to 1000 nM, r(log-lin) = 0.9453-0.9968, read-out: EC50 Atrial Rate, determined by linear regression of percent maximum response
[3] = as described in the PDR, even by inhalation; cited from earlier work
human β1 AR = human β1 AR (Homo sapiens, UniProt P08588); assay: Competitive binding to human β1-adrenergic receptor ([125I]iodopindolol, Sf9 cell membranes); details: radioligand [125I]iodopindolol; read-out: Kd for radioligand binding to human β1 ARs
human β2 AR = human β2 AR (Homo sapiens, UniProt P07550); assay: Competitive binding to human β2-adrenergic receptor ([125I]iodopindolol, Sf9 cell membranes); details: radioligand [125I]iodopindolol; read-out: Kd for radioligand binding to human β2 ARs
human β2 AR, sequence (P07550 whole entry): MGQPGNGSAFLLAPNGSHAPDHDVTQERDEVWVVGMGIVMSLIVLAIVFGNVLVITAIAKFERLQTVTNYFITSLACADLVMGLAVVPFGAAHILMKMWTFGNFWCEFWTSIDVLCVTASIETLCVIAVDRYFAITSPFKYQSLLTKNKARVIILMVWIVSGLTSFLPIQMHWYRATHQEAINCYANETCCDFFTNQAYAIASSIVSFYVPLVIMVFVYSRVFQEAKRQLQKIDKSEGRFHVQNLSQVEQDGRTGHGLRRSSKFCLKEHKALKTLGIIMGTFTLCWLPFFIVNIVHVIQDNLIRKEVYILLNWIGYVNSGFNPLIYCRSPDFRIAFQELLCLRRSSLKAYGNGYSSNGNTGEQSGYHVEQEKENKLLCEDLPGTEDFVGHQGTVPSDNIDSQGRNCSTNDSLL

human β1 AR, sequence (P08588 whole entry): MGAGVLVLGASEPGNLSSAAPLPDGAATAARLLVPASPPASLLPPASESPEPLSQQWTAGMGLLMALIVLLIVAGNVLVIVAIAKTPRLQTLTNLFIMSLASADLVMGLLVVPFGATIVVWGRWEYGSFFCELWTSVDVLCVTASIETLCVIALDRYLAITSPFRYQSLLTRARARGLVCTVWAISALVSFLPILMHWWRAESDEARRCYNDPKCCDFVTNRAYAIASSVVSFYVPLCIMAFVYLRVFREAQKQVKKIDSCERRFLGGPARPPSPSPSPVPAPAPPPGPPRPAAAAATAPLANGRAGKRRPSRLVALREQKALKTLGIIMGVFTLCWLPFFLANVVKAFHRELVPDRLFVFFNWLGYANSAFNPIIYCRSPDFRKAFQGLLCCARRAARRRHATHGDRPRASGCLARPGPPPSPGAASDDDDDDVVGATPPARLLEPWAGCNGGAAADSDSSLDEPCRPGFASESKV

EC50 [1] | EC50 [2] | Structure (SMILES) | other results
100000 nM | > 10000 nM | CC(C)(C)NC[C@@H](O)c1ccc(O)c(CO)c1 [(S)-Albuterol] | –
673 nM | 272 nM | CC(C)(C)NCC(O)c1ccc(O)c(CO)c1 (racemic) [(RS)-Albuterol] | –

Second part, the molecule before the results:

Structure (SMILES) | EC50 [1] | EC50 [2] | other results
OCc1cc([C@@H](O)CNCCCCCCOCCCCc2ccccc2)ccc1O [(R)-Salmeterol] | 149 nM | 1730 nM | –
C=C[C@@]1(C)CC(=O)[C@]2(O)[C@@]3(C)[C@@H](O)CCC(C)(C)[C@@H]3[C@H](O)[C@H](OC(C)=O)[C@@]2(C)O1 [forskolin] | – | – | rate of spontaneous contraction of right atria ([2]; 1 μM forskolin, basal roughly 140-170 bpm): 195-250 bpm
OCc1cc(C(O)CNCCCCCCOCCCCc2ccccc2)ccc1O (racemic) [(RS)-Salmeterol, 4-hydroxy-α^1 - [[[6(4-phenylbutoxy)-hexyl]amino]methyl]-1,3-benzenedimethanol] | 273 nM | 3520 nM | adverse effects [3]: tachycardia, palpitations, urticaria, angioedema, rash, bronchospasms, headache, tremors, nervousness, and paradoxical bronchospasms
CC(C)NC[C@H](O)COc1cccc2[nH]cc(I)c12 [[^125 l] iodopindolol] | – | – | Kd (human β1 AR): 2 nM; Kd (human β2 AR): 0.02 nM
CC(C)(C)NC[C@H](O)c1ccc(O)c(CO)c1 [(R)-Albuterol] | 747 nM | 177 nM | potency for tracheal relaxation relative to (S)-salmeterol ([1]; relative to (S)-salmeterol): approximately four
OCc1cc([C@H](O)CNCCCCCCOCCCCc2ccccc2)ccc1O [(S)-Salmeterol, S enantiomer of 4-hydroxy-α^1 - [[[6(4-phenylbutoxy)-hexyl]amino]methyl]-1,3-benzenedimethanol] | 3150 nM | – | potency for tracheal relaxation compared with (S,S)-formoterol ([1]; extrapolated from three data points): equivalent in potency; efficacy with respect to tracheal relaxation ([1]; in words): full efficacy could be achieved; potency for tracheal relaxation compared with racemic formoterol or its (R,R)-enantiomer ([1]; in words): significantly less potent; effect on atrial rate compared with vehicle control ([2]; in words): essentially the same effect on atrial rate as the vehicle control
COc1ccc(Cc2nccc3cc(OC)c(OC)cc23)cc1OC [papaverine] | – | – | relaxation of histamine-contracted tracheal strips ([1]; 1 mM papaverine): complete relaxation
